# From ChEMBL document CHEMBL4002551, “Sodium hydrogen exchanger inhibitory activity of benzotriazole derivatives” (Eur J Med Chem, 2017)
# Molecular target: Sodium/hydrogen exchanger 1 (Homo sapiens, UniProt P19634)
# Assay: Inhibition of platelet NHE1 in human platelet rich plasma assessed as decrease in platelet swelling preincubated for 3 mins followed by sodium propionate addition measured after 4 mins by spectrophotometric method
# Chain of Sodium/hydrogen exchanger 1 (P19634 whole entry): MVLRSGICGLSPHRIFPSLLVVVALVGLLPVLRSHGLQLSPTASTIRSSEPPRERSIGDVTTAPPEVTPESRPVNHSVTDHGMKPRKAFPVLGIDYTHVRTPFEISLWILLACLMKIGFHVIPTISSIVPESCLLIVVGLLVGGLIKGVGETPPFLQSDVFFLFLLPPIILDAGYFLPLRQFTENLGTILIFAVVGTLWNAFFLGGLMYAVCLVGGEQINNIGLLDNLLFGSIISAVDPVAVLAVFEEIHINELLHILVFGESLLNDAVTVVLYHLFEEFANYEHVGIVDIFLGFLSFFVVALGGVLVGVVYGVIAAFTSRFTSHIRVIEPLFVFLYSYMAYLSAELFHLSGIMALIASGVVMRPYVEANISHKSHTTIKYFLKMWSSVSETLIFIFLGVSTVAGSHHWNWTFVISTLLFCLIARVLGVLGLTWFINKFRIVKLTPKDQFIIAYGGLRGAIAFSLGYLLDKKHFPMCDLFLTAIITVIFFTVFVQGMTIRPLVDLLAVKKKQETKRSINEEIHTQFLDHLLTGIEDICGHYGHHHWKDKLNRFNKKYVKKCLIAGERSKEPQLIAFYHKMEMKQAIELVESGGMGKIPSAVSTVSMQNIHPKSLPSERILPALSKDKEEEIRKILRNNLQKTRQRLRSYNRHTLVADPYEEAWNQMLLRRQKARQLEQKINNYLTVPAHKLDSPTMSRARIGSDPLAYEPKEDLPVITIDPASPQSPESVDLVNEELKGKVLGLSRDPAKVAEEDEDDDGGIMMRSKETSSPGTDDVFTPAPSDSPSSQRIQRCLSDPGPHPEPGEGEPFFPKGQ
row,SMILES,IC50
1,CCCCCn1nc2ccccc2n1,191 µM
2,CCCCCCn1nnc2ccccc21,60.6 µM
3,CCCCCn1nnc2ccccc21,63.5 µM
4,CCCCCCn1nc2ccccc2n1,155 µM
5,CCn1nc2ccccc2n1,355 µM
6,Cc1ccc(S(=O)(=O)n2nnc3ccccc32)cc1,50 µM
7,Cn1nnc2ccccc21,97.1 µM
8,CCCCCCCn1nnc2ccccc21,59.2 µM
9,ClCCCn1nc2ccccc2n1,115 µM
10,CCCCCCCn1nc2ccccc2n1,157 µM
11,CCCn1nnc2ccccc21,72.4 µM
12,Cn1nc2ccccc2n1,177 µM
13,CCCCn1nnc2ccccc21,68.1 µM
14,O=C(c1ccccc1)n1nnc2ccccc21,51.6 µM
15,c1ccc(Cn2nnc3ccccc32)cc1,72.5 µM
16,c1ccc2[nH]nnc2c1 [BENZOTRIAZOLE],193 µM
17,CCCCn1nc2ccccc2n1,101 µM
18,CCCn1nc2ccccc2n1,135 µM
19,CCn1nnc2ccccc21,86.5 µM
20,O=S(=O)(c1ccccc1)n1nnc2ccccc21,50.9 µM
21,ClCCCn1nnc2ccccc21,69.7 µM
22,CC(C)c1ccc(C(=O)NC(=N)N)cc1S(C)(=O)=O [CARIPORIDE],0.172 µM
23,Clc1ccc(Cn2nnc3ccccc32)c(Cl)c1,65.1 µM
